Measured values as given in patent US8889876B2, “Histone deacetylase inhibitors and uses thereof” (Jiangsu Hengyi Pharmaceutical Co., Ltd., priority 2008, dated 2014).

Assays:
Type in all cases: cell-based
[1] = system: Hut78 T-cell Leukemia cell; experiment: CCK-8 proliferation inhibition, Hut78; conditions: Homo sapiens, read-out: Hut-78 (inhibition %); for inhibition at 10 µM: HuT78, 10 μM; for inhibition at 100 µM: HuT78, 100 μM
Experimental: (§1) Detecting the inhibition rate of the compound concentrations of 100 μM and 10 μM to Hut78 T-cell Leukemia cell, Jurkat E6-1 human T-cell lymphoma, PANC-1 human pancreatic cancer cells, A549 human lung cancer cells, K562 human chronic myeloid leukemia cells, Hep3B2.1-7 human liver cancer cells, MDA-MB-435s human breast cancer cells, Colo320 human rectal cancer cells and PC-3 human prostate cancer using CCK-8 method.

[2] = system: PANC-1 human pancreatic cancer cells; experiment: CCK-8 proliferation inhibition, PANC-1; conditions: Homo sapiens; for inhibition at 10 µM: PANC-1, 10 μM; for inhibition at 100 µM: PANC-1, 100 μM
Experimental: as §1

[3] = system: Jurkat E6-1 human T-cell lymphoma; experiment: CCK-8 proliferation inhibition, Jurkat E6-1; conditions: Homo sapiens; for inhibition at 10 µM: Jurkat E6.1, 10 μM; for inhibition at 100 µM: Jurkat E6.1, 100 μM
Experimental: as §1

[4] = system: K562 human chronic myeloid leukemia cells; experiment: CCK-8 proliferation inhibition, K562; conditions: Homo sapiens; for inhibition at 10 µM: K562, 10 μM; for inhibition at 100 µM: K562, 100 μM
Experimental: as §1

[5] = system: A549 human lung cancer cells; experiment: CCK-8 proliferation inhibition, A549; conditions: Homo sapiens, A549, CCK-8 method; for inhibition at 10 µM: compound concentration 10 μM; for inhibition at 100 µM: compound concentration 100 μM
Experimental: as §1

[6] = system: MDA-MB-435s human breast cancer cells; experiment: CCK-8 proliferation inhibition, MDA-MB-435s; conditions: Homo sapiens, MDA-MB-435S, CCK-8 method; for inhibition at 10 µM: compound concentration 10 μM; for inhibition at 100 µM: compound concentration 100 μM
Experimental: as §1

[7] = system: Hep3B2.1-7 human liver cancer cells; experiment: CCK-8 proliferation inhibition, Hep3B2.1-7; conditions: Homo sapiens, Hep3B, CCK-8 method; for inhibition at 10 µM: compound concentration 10 μM; for inhibition at 100 µM: compound concentration 100 μM
Experimental: as §1

[8] = system: PC-3 human prostate cancer; experiment: CCK-8 proliferation inhibition, PC-3; conditions: Homo sapiens, CCK-8 method; for inhibition at 10 µM: compound concentration 10 μM; for inhibition at 100 µM: compound concentration 100 μM
Experimental: as §1

[9] = system: Colo320 human rectal cancer cells; experiment: CCK-8 proliferation inhibition, Colo320; conditions: Homo sapiens, COLO 320, CCK-8 method; for inhibition at 10 µM: compound concentration 10 μM; for inhibition at 100 µM: compound concentration 100 μM
Experimental: as §1

| Compound | inhibition at 10 µM [1] | inhibition at 100 µM [1] | inhibition at 10 µM [2] | inhibition at 100 µM [2] | inhibition at 10 µM [3] | inhibition at 100 µM [3] | inhibition at 10 µM [4] | inhibition at 100 µM [4] | inhibition at 10 µM [5] | inhibition at 100 µM [5] | inhibition at 10 µM [6] | inhibition at 100 µM [6] | inhibition at 10 µM [7] | inhibition at 100 µM [7] | inhibition at 10 µM [8] | inhibition at 100 µM [8] | inhibition at 10 µM [9] | inhibition at 100 µM [9] |
| --- | --- | --- | --- | --- | --- | --- | --- | --- | --- | --- | --- | --- | --- | --- | --- | --- | --- | --- |
| Cc1ccc(COC(=O)NCc2ccc(C(=O)Nc3ccncc3N)cc2)cc1 [V-10] | 15.5% | 66.6% | 16.9% | 19.7% | 27.2% | 93.3% | 53.6% | 87.2% | -16.9% | 45.7% | 8% | 79.1% | -7% | 57.5% | 23.7% | 56% | -5.5% | 59.2% |
| COc1ccc(COC(=O)NCc2ccc(C(=O)Nc3ccncc3N)cc2)cc1 [V-12] | 17.5% | 83.6% | -1.8% | 34.9% | 36.4% | 96.3% | 56.9% | 94.5% | -5.9% | 38% | 14.2% | 94.5% | 5% | 90.4% | 29.7% | 89.3% | -1.8% | 86.4% |
| Nc1ncccc1NC(=O)c1ccc(CNC(=O)OCc2ccc([N+](=O)[O-])cc2)cc1 [V-15, N-(2-amino-3-pyridyl)-4-[(4-nitrobenzyloxyacyl)aminomethyl]benzamide] | 28.5% | 24.6% | 24% | 21.1% | 18.6% | 26.3% | 20.4% | 32.3% | 15.3% | 12.9% | 30.6% | 42.4% | 22.3% | 43% | 21.9% | 18.8% | 2.6% | 4.1% |
| Nc1ncccc1NC(=O)c1ccc(CNC(=O)OCc2ccc(F)cc2)cc1 [V-19, N-(2-amino-3-pyridyl)-4-[(4-fluorobenzyloxyacyl)aminomethyl]benzamide] | 19.8% | 54% | 26% | 36.8% | 19.1% | 77.8% | 25% | 65.1% | 18.3% | 57.1% | 27.5% | 89.1% | 21.5% | 69.8% | -1.9% | 48.5% | 0.9% | 34.3% |
| Nc1cnccc1NC(=O)c1ccc(CNC(=O)OCc2ccc(F)cc2)cc1 [V-20] | 22% | 91.1% | -2.8% | 15.7% | 23.8% | 96.5% | 34% | 88.7% | -17.6% | 72.2% | 19.5% | 63.9% | 7.2% | 79.3% | 22.9% | 84.4% | -14.3% | 82.7% |
| Nc1ncccc1NC(=O)c1ccc(CNC(=O)/C=C/c2ccccc2)cc1 [V-25, N-(2-amino-3-pyridyl)-4-(cinnamoylaminomethyl)benzamide] | 23.4% | 53.5% | 12% | 25.1% | 20.3% | 80.2% | 33.6% | 72.4% | 29.8% | 67.9% | 32.5% | 73.3% | 18.4% | 45.7% | 41.8% | 67.1% | 4.9% | 28.9% |
| Cc1ccc(/C=C/C(=O)NCc2ccc(C(=O)Nc3cccnc3N)cc2)cc1 [V-27, N-(2-amino-3-pyridyl)-4-[(4-methylcinnamoyl)aminomethyl]benzamide] | 43% | 77% | 20.2% | 26.2% | 58.3% | 80.9% | 54.3% | 85.8% | 6.3% | 37.3% | 33% | 77% | 25.4% | 49.9% | 50.2% | 61% | 12.9% | 40.1% |
| COc1ccc(/C=C/C(=O)NCc2ccc(C(=O)Nc3cccnc3N)cc2)cc1 [V-29, N-(2-amino-3-pyridyl)-4-[(4-methoxycinnamoyl)aminomethyl]benzamide] | 45.2% | 75.6% | 12.5% | 33.3% | 49.3% | 89.7% | 52.2% | 85.2% | 0% | 41.3% | 17% | 57.8% | 11% | 68.1% | 40.1% | 64.2% | 9.5% | 45.9% |
| Nc1ncccc1NC(=O)c1ccc(CNC(=O)/C=C/c2ccc(F)cc2)cc1 [V-40, N-(2-amino-3-pyridyl)-4-[(4-fluorocinnamoyl)aminomethyl]benzamide] | 29.2% | 69.3% | 4.4% | 9.5% | 31.6% | 87.6% | 45% | 75% | 2.8% | 47.7% | 28.5% | 76.3% | -5% | 51.7% | 6.3% | 38.8% | 10% | 32.3% |
| Nc1cnccc1NC(=O)c1ccc(CNC(=O)/C=C/c2cccnc2)cc1 [V-43] | 25.7% | 49.6% | 3.1% | 35.9% | 69.1% | 96.8% | 13.8% | 60.8% | 41.2% | 85.5% | 18.8% | 86.4% | 22.5% | 60.5% | 88% | 94.5% | 19.1% | 59.4% |
| Nc1ncccc1NC(=O)c1ccc(CNC(=O)/C=C/c2ccc3ccccc3c2)cc1 [V-46, N-(2-amino-3-pyridyl)-4-(2-naphthylacryloylaminomethyl)benzamide] | 16.4% | 13.4% | 8.1% | 0.4% | 14.8% | 1.9% | 27.3% | 18.9% | 7.7% | 4.1% | 16.4% | 4.1% | 17.5% | -5% | -1.7% | -2.4% | 13.7% | -9% |
| Nc1ncccc1NC(=O)c1ccc(CNC(=O)CCc2ccccc2)cc1 [V-48, N-(2-amino-3-pyridyl)-4-[(3-phenylpropionyl)aminomethyl]benzamide] | -0.4% | 47.4% | -2.2% | -1.8% | 9.7% | 61.9% | 20% | 57.2% | 3.9% | 9.8% | 10% | 26.6% | -14% | 20.5% | -16.4% | 14.8% | 2.9% | 17.9% |
